This is an account of results in patent US7078222B2, “Microorganism for producing riboflavin and method for producing riboflavin using the same” (CJ Corp., priority 2002, dated 2006).

The subject of test [1] is Bacillus subtilis CJKB0002 (KCCM-10446). Briefly: Evaluation of resistance against DL-β-hydroxynorvaline (growth in DL-β-hydroxynorvaline-containing minimal medium). Set-up: key to growth of strain: +: growth; −: not growth. Type of test: cell-based. The settings on record: for growth of strain: 30° C., 5 days. As for the experimental part:
(§1) In this example, in order to evaluate resistance to DL-β-hydroxynorvaline, the Bacillus subtilis CJKB0002 (KCCM-10446) of Example 1 and the Bacillus subtilis AS5 as the parent strain were cultured in various concentrations of DL-β-hydroxynorvaline-containing media. In detail, respective strains were inoculated onto DL-β-hydroxynorvaline-containing media as shown in Table 1 and cultured at 30° C. for 5 days. In this case, the concentration of DL-β-hydroxynorvaline ranged from 0 to 350 mg/l.

Another test has as its system Bacillus subtilis AS5. The description is as above. It is filed as cell-based. To be noted: for growth of strain: 30° C., 5 days. Set-up: key to growth of strain: +: growth; −: not growth. The procedure: as §1

Structures are written as SMILES.

As to `CCC(O)C(N)C(=O)O` (racemic) [DL-β-hydroxynorvaline], the growth of strain entry in test [1] (250 mg/l DL-β-hydroxynorvaline) is “+”; in test [1] (300 mg/l DL-β-hydroxynorvaline), “−”; in test [1] (350 mg/l DL-β-hydroxynorvaline), “−”; in the test with Bacillus subtilis AS5 (50 mg/l DL-β-hydroxynorvaline), “+”; in the test on Bacillus subtilis AS5 (100 mg/l DL-β-hydroxynorvaline), “−”; with Bacillus subtilis AS5 (200 mg/l DL-β-hydroxynorvaline) it was “−”. Besides, the growth of strain entry in the test with Bacillus subtilis AS5 (250 mg/l DL-β-hydroxynorvaline), in the test with Bacillus subtilis AS5 (300 mg/l DL-β-hydroxynorvaline) and in the test on Bacillus subtilis AS5 (350 mg/l DL-β-hydroxynorvaline) was “−” throughout. The “enhanced resistance to threonine analogue compared to Bacillus subtilis AS5” value in test [1] (CJKB0002 versus AS5) is listed as “five times”. Also, the “concentration of DL-β-hydroxynorvaline in which the strain can grow” value in test [1] (mutant CJKB0002) is no more than 250 mg/L. The “concentration of DL-β-hydroxynorvaline in which the strain cannot grow” value with Bacillus subtilis AS5 (parent strain AS5) is “more than 50 mg/l”.
